Measured values taken from US4742057A, “Antiallergic thiazole compounds” (Fujisawa Pharmaceutical Co., Ltd., priority 1985, dated 1988).

Tested on: anaphylactic asthma in guinea pigs
Test: Antagonistic action on anaphylactic asthma in guinea pigs (prophylactic effect, survival after antigen spraying)
Type: in vivo, guinea pigs (male Hartley-strain)
Conditions: Cavia porcellus; oral, 30 min before egg-white albumin aerosol; survival for not less than 2 hours; passively sensitized guinea pigs

Structure (SMILES)	ED50
CC(=O)Nc1nc(CN2CCC(c3c[nH]c4ccccc34)CC2)cs1 [Compound A, 2-Acetylamino-4-[4-(3-indolyl)piperidinomethyl]thiazole]	0.95 mg/kg
CS(=O)(=O)Nc1nc(CN2CCC(c3c[nH]c4ccccc34)CC2)cs1 [Compound B, 4-[4-(3-Indolyl)piperidinomethyl]-2-mesylaminothiazole]	0.086 mg/kg
CS(=O)(=O)Nc1nc(CCN2CCC(c3c[nH]c4ccccc34)CC2)cs1 [Compound C, 4-[2-[4-(3-Indolyl)piperidino]ethyl]2-mesylaminothiazole]	0.02 mg/kg
CCC(=O)Nc1nc(CN2CCC(c3c[nH]c4ccccc34)CC2)cs1 [Compound D, 4-[4-(3-Indolyl)piperidinomethyl]-2-propionylaminothiazole]	0.92 mg/kg
Nc1nc(CCCN2CCC(c3c[nH]c4ccccc34)CC2)cs1 [Compound F, 4-[3-[4-(3-Indolyl)piperidino]propyl]-2-aminothiazole]	0.3 mg/kg
CS(=O)(=O)Nc1nc(CCCN2CCC(c3c[nH]c4ccccc34)CC2)cs1 [Compound G, 4-[3-[4-(3-Indolyl)piperidino]propyl]-2-mesylaminothiazole]	0.03 mg/kg
